Here are results for 25 compounds from patent publication US7576198B1, “Integrase inhibitors containing aromatic heterocycle derivatives” (Shionogi & Co., Ltd., priority 1999, dated 2009).

Read-outs that look alike come from different tables or passages of the source.

The target of the assay is HIV-1 integrase (Human immunodeficiency virus type 1 group M subtype B, UniProt P04585). The assay is described as follows: HIV-1 integrase inhibition assay (microtiter plate, substrate DNA/target DNA, OD 405 nm). The following applies: for IC50: HIV-1 integrase, concentration of the compound at percent inhibition 50%, OD 405 nm; for inhibitory effect for HIV-1 integrase, stated in words (compound having high activity): besides the compounds of the IC50 table. It counts as biochemical. The protocol:
The inhibitory effects of the compounds of the present invention for HIV-1 integrase have been determined by the assay described below.
(1) Preparation of DNA solutions.
Substrate DNA and target DNA, which sequences were indicated below, were synthesized by Amersham Pharmacia Biotech and dissolved in KTE buffer (composition: 100 mM KCl, 1 mM EDTA, 10 mM Tris-HCl (pH 7.6)) at concentration of 2 pmol/μl and 5 pmol/μl, respectively. The DNA solutions were annealed with each complement by slowly cooling after heating.
(Substrate DNA) • 5′-Biotin-ACCCTTTTAGTCAGTGTGGAAAATCTCTAGCAGT-3′ • 3-GAAAATCAGTCACACCTTTTAGAGATCGTCA-5′
5′-TGACCAAGGGCTAATTCACT-Dig-3′
3′-Dig-ACTGGTTCCCGATTAAGTGA-5′
(2) Calculations of the percent inhibitions (the IC50 values of test compounds)
Streptavidin, obtained from Vector Laboratories, was dissolved in 0.1 M carbonate buffer (composition: 90 mM Na2CO3, 10 mM NaHCO3) at concentration of 40 μg/ml. After coating each well of microtiter plates (obtained from NUNC) with 50 μl of the above solution at 4° C. over night, each well was washed twice with PBS (composition: […], 0.27 mM KCl, 0.43 mM Na2HPO4, 0.14 mM KH2PO4) and blocked with 300 μl of 1% skim milk in PBS for 30 min. Additionally, each well was washed twice with PBS and added 50 μl of substrate DNA solution (2 pmol/μl). The microtiter plates were kept at room temperature for 30 min. Then, each well was washed twice with PBS and once with H2O.
Subsequently, in the each well prepared above were added 45 μl of the reaction buffer prepared from 12 μl of the buffer (composition: 150 mM MOPS (pH 7.2), 75 mM MnCl2, 50 mM 2-mercaptoethanol, 25% glycerol, 500 μg/ml bovine serum albumin-fraction V), 1 μl of target DNA (5 pmol/μl), and 32 μl of the distilled water. Additionally, 6 μl of either a test compound in DMSO or DMSO for positive control (PC) was mixed with the above reaction buffer, then 9 μl of an integrase solution (30 pmol) was added and mixed well. In the well of negative control (NC) was added 9 μl of the integrase dilution buffer (composition: 20 mM MOPS (pH7.2), 400 mM potassium glutamate, 1 mM EDTA, 0.1% NP-40, 20% glycerol, 1 mM DTT, 4M urea).
The microtiter plates were incubated at 30° C. for 1 hour. The reaction solution was removed and each well was washed twice with PBS. Subsequently, each well of the microtiter plates was filled with 100 μl of anti-digoxigenin antibody labeled with alkaline phosphatase (Sheep Fab fragment: obtained from Boehringer) and incubated at 30° C. for 1 hour. Then, each well was washed twice with 0.05% Tween20 in PBS and once with PBS. Next, 150 μl of the Alkaline phosphatase reaction buffer (composition: 10 mM p-Nitrophenylphosphate (obtained from Vector Laboratories), 5 mM MgCl2, 100 mM NaCl, 100 mM Tris-HCl (pH 9.5)) was added in each well. The microtiter plates were incubated at 30° C. for 2 hours and the reaction was terminated by the addition of 50 μl of 1 N NaOH solution. The optical density (OD) at 405 nm of each well was measured and the percent inhibition was determined by the following expression. The percent inhibition (%)=100[1−{(C abs.−NC abs.)/(PC abs.−NC abs.)}] • C abs.; the OD of the well of the compounds • NC abs. the OD of the negative control (NC) • PC abs.: the OD of the positive control (PC)
The following Compounds (X-1 to 3) were used in order to compare an activity of the present compound with that of the compounds (X-1 to 3). Compound No. in the Table 1 is the same as compound No. of the above example.

Where [1] appears, read: read-out: IC50 (μg/ml) (converted).

Regarding `O=C(O)C(=O)c1c(F)ccc(COc2ccc(C=C(O)C(=O)O)nc2)c1F` [Compound I-17, 3-[5-(3-Carboxyoxalyl-2,4-difluorobenzyloxy)-pyridin-2-yl]-2-hydroxy acrylic acid], the “IC50” value was 3.4 µg/mL. With `O/C(=C\c1cc(CCc2ccc(F)cc2)ncn1)c1ncccn1` [Compound I-109], the “inhibitory effect for HIV-1 integrase, stated in words (compound having high activity)” value (shortened to “inhibitory effect for HIV-1 integrase”) is on record as “high activity”. With `OC(=Cc1ccc(OCc2ccccc2)cn1)c1nc[nH]n1` [Compound I-14, 2-(5-Benzyloxypyridin-2-yl)-1-(1H-[1,2,4]triazol-3-yl) ethenol], the IC50 under setting [1] was 3230 nM. Take `O=C(O)/C(O)=C/c1ncc(CCc2ccccc2)o1` [Compound I-117]: the “inhibitory effect for HIV-1 integrase” value is “high activity”. For the compound `O=C(O)/C(O)=C/c1ccc2ccccc2c1` [Compound X-2, reference compound], the IC50 under setting [1] is over 467000 nM. Still for that read-out and setting: under `CCOC(=O)C(O)=Cc1ccc(OCc2ccccc2)cn1` [Compound I-2, 3-(5-Benzyloxypyridin-2-yl)-2-hydroxy acrylic acid ethyl ester] stands 1770 nM. Same read-out and setting: then `COc1cc(/C=C(\O)C(=O)O)ccc1OCc1ccccc1` [Compound X-1, reference compound], with over 333000 nM; and `O=C(O)/C(O)=C/c1cnc(CCc2ccccc2)cn1` [Compound I-27, 3-[5-(2-Phenylethyl)pyradin-2-yl]-2-hydroxy acrylic acid], with 2520 nM.

As to `O=C(O)C(O)=Cc1ccc(OCc2ccc(F)cc2F)cn1` [Compound I-47, 3-[5-(2,4-Difluorobenzyloxy)pyridin-2-yl]-2-hydroxy acrylic acid], the IC50 under setting [1] was 1630 nM. As to `O=C(O)C(O)=Cc1cc(CCc2ccccc2)ncn1` [Compound I-25, 3-[6-(2-Phenylethyl)pyrimidin-4-yl)-2-hydroxy acrylic acid], the IC50 under setting [1] was 481 nM.

For the compound `O=C(O)C(O)=Cc1ccc(OCc2ccccc2)cn1` [Compound I-3, 3-(5-Benzyloxypyridin-2-yl)-2-hydroxy acrylic acid], the IC50 under setting [1] was 1140 nM. The same measure, in the same setting: then `CCOC(=O)C(O)=Cc1cc(CCc2ccccc2)ncn1` [Compound I-24, 3-[6-(2-Phenylethyl)pyrimidin-4-yl)-2-hydroxy acrylic acid ethyl ester], with 1010 nM; and `O=C(O)/C(O)=C/c1ccc(OCc2ccccc2)cc1` [Compound X-3, reference compound], with over 370000 nM. The same measure, in the same setting: under `O=C(O)/C(O)=C/c1nnc(CCc2ccccc2)s1` [Compound I-35, 3-[5-(2-Phenylethyl)[1,3,4]thiadiazol-2-yl)-2-hydroxy acrylic acid] stands 1590 nM; under `CC(C)CCOc1ccc(/C=C(\O)C(=O)O)nc1` [Compound I-9, 3-(5-Isopentoxypyridin-2-yl)-2-hydroxy acrylic acid], 11500 nM. Same read-out and setting: under `O=C(O)/C(O)=C/c1ccc(OCc2ccc(C(F)(F)F)cc2)cn1` [Compound I-49, 3-[5-(4-Trifluoromethylbenzyloxy)pyridin-2-yl]-2-hydroxy acrylic acid] stands 16500 nM.

With `O/C(=C\c1cc(CCc2ccccc2)ncn1)c1ncccn1` [Compound I-110], the “inhibitory effect for HIV-1 integrase” value is reported as “high activity”. Turning to `OC(=Cc1ccc(OCc2ccccc2)cn1)c1nccs1` [Compound I-15, 2-(5-Benzyloxypyridin-2-yl)-1-thiazol-2-yl ethenol], the IC50 under setting [1] is 10200 nM. For the compound `O=C(O)/C(O)=C/c1ncc(CCc2ccccc2)s1` [Compound I-119], the “inhibitory effect for HIV-1 integrase” value is given as “high activity”. As for `O=C(O)/C(O)=C/c1ccc(OCC2CCCCC2)cn1` [Compound I-7, 3-[5-(Cyclohexylmethoxy)pyridin-2-yl]-2-hydroxy acrylic acid], the IC50 under setting [1] was 4690 nM.

Regarding `Cc1cc(/C(O)=C/c2cc(CCc3ccccc3)ncn2)no1` [Compound I-103], the “inhibitory effect for HIV-1 integrase” value is “high activity”. Same read-out and setting: under `O=C(O)c1ccc(/C(O)=C/c2cc(CCc3ccccc3)ncn2)nc1` [Compound I-114] stands “high activity”; under `O/C(=C\c1cc(CCc2ccccc2)ncn1)c1ccccn1` [Compound I-111], “high activity”; under `O=C(O)/C(O)=C/c1cc(C(F)Cc2ccccc2)ncn1` (stereo not shown) [Compound I-115], “high activity”. On to `CCOC(=O)C(O)=Cc1ccc(OCc2ccc(F)cc2F)cn1` [Compound I-46, 3-[5-(2,4-Difluorobenzyloxy)pyridin-2-yl]-2-hydroxy acrylic acid ethyl ester], for which the IC50 under setting [1] was 1640 nM.
